Structures can show the parent of a compound that is named as a salt.

For one experiment, the target named is T1, LTD4 receptor (Cavia porcellus, UniProt Q2NNR5).
T1 construct: guinea pig pulm-omembranous protein and a test compound; from tissue; host or cells: guinea pig lung membranes
T1 sequence (Q2NNR5 1-340): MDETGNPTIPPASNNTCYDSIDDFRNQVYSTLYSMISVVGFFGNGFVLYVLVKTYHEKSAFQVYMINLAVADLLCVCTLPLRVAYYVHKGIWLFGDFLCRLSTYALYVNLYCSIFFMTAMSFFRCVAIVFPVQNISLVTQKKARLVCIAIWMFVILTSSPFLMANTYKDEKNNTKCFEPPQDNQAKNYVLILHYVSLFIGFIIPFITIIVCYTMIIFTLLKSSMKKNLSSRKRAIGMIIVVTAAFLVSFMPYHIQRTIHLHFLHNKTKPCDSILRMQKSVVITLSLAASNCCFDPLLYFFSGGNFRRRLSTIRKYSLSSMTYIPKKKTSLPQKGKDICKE
The experiment can be described thus: LTD4 Receptor Binding Inhibition Test ([3H]LTD4, guinea pig pulmomembranous protein). To be noted: read-out: LTD4 receptor dissociation constant (KD). As to the method:
LTD4 Receptor Binding Inhibition Test
An ice-cold tris hydrochloride/sodium chloride buffer (10 mM/100 mM, pH 7.5) was added to terminate the reaction, followed by immediate filtration through a Wattman CF/C filter. The filter was washed twice with 20 ml aliquots of the ice-cold buffer. The radioactivity of the residue was measured by a liquid scintillation counter.
In a binding assay, […] LTD4 was used for the measurement of a nonspecific binding.

In a further experiment the target is T2, H1 receptor (Cavia porcellus, UniProt P31389).
T2 construct: guinea pig cerebromembranous protein and a test compound; from tissue; host or cells: guinea pig brain membranes
T2 sequence (P31389 whole entry): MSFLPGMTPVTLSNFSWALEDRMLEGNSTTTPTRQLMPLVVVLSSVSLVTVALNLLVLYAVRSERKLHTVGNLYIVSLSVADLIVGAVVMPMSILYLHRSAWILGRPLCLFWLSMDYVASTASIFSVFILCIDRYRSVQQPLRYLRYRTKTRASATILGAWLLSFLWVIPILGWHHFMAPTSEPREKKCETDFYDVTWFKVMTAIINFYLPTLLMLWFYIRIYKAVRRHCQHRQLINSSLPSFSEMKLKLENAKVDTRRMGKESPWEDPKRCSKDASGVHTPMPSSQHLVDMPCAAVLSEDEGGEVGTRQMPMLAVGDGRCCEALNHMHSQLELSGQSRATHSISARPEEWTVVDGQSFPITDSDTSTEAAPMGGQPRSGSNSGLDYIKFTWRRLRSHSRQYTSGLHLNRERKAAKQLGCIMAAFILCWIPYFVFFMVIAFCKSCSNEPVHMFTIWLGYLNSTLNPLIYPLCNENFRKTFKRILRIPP
The experiment can be described thus: H1 Receptor Binding Inhibition Test ([3H]mepyramin, guinea pig cerebromembranous protein). The following applies: read-out: H1 receptor dissociation constant (KD). As to the method: H1 Receptor Binding Inhibition Test
An ice-cold phosphate buffer was added to terminate the reaction, followed by immediate filtration through a Wattman CF/C filter. The filter was washed twice with 20 ml aliquots of the ice-cold buffer. The radio-activity of the residue was measured by a liquid scintillation counter. From a measurement value obtained without the addition of the test compound and measurements values obtained upon addition of the test compound at various concentrations, the dose-response of the inhibitory action of the test compound was measured and the 50% inhibitory concentration (IC50) was determined. Using the Cheng-Prusoff formula, a dissociation constant (KD) was calculated from the 50% inhibitory concentration (IC50).
In a binding assay, 10^4 M R(-)dimethindene was used for the measurement of a nonspecific binding.

Experiment [1] deals with T3, isolated guinea pig ileum (Cavia porcellus, UniProt Q2NNR5).
T3 construct: An isolated guinea pig ileum was cut into about 2 cm lengths; from tissue; host or cells: guinea pig ileum
T3 sequence (Q2NNR5 1-340): T1 sequence (Q2NNR5 1-340)
The experiment can be described thus: Anti-LTD4 action on isolated guinea pig ileum (LTD4 contraction). The following applies: 10^-5 M test compound; contraction caused by 10^-8 M LTD4; read-out: Anti-LTD4 action (inhibition rate). Type of experiment: cell-based. As to the method: Antihistaminic Action and Anti-LTD4 Action (In vitro Tests)
An isolated guinea pig ileum was cut into about 2 cm lengths. Each ileum piece was suspended in a 20-ml container filled with the Tyrode's buffer. An isotonic contractive response by histamine or LTD4 was recorded on a recorder. The Tyrode's buffer was controlled at 30° C., through which a mixed gas (95%O2 -5%CO2) was bubbled.

For `CC1(C)C(=O)Nc2ccc(OCCN3CCN(Cc4ccc5ccccc5n4)CC3)cc21` [Example 1, 3,3-dimethyl-5-{2-[4-(2-quinolylmethyl)-1-piperazinyl]ethoxy}-2,3-dihydro-1H-indol-2-one], the figures for the Ki at LTD4 receptor and on H1 receptor were 3240 nM and 173 nM, respectively. Moreover, the inhibition at 10 µM in experiment [1] stood at 16%.

For `Cc1ccc(OCCCCCN2CCN(Cc3ccc4ccccc4n3)CC2)c2c1NC(=O)C2(C)C` [Example 9, 3,3,7-Trimethyl-4-{5-[4-(2-quinolylmethyl)-1-piperazinyl]pentyloxy}-2,3-dihydro-1H-indol-2-one], the Ki at LTD4 receptor is 49600 nM; at H1 receptor it was 13.5 nM. Besides, the inhibition at 10 µM in experiment [1] came to 40%. For `Cc1ccc(OCCCN2CCN(Cc3nc4ccccc4n3C)CC2)c2c1NC(=O)C2(C)C` [Example 26, 3,3,7-Trimethyl-4-{3-[4-(N-methylbenzoimidazol-2-ylmethyl)-1-piperazinyl]propoxy}-2,3-dihydro-1H-indol-2-one] the same measures were 3340 nM, 36.3 nM and 27%. For `CC1(C)C(=O)Nc2c(OCCCN3CCN(Cc4ccc5ccccc5n4)CC3)cccc21` [Example 29, 3,3-Dimethyl-7-{3-[4-(2-quinolylmethyl)-1-piperazinyl]propoxy}-2,3-dihydro-1H-indol-2-one], the inhibition at 10 µM in experiment [1] amounted to 48%. On to `O=C1CCc2ccc(OCCN3CCN(Cc4ccc5ccccc5n4)CC3)cc2N1` [Example 32, 7-{2-[4-(2-Quinolylmethyl)-1-piperazinyl]ethoxy}-1,2,3,4-tetrahydroquinolin-2-one], for which the inhibition at 10 µM in experiment [1] worked out at 20%. As to `O=c1ccc2ccc(OCCCN3CCN(Cc4ccc5ccccc5n4)CC3)cc2[nH]1` [Example 36, 7-{3-[4-(2-Quinolylmethyl)-1-piperazinyl]propoxy}-1,2-dihydroquinolin-2-one], the values for the Ki at LTD4 receptor and on H1 receptor were 1990 nM and 0.00349 nM, respectively. Further, the inhibition at 10 µM in experiment [1] was 46%. Consider `O=c1ccc2ccc(OCCN3CCN(Cc4ccc5ccccc5n4)CC3)cc2[nH]1` [Example 39, 7-{2-[4-(2-Quinolylmethyl)-1-piperazinyl]ethoxy}-1,2-dihydroquinolin-2-one], for which, in experiment [1], the inhibition at 10 µM amounted to 30%. For the compound `CC1(C)C(=O)Nc2cccc(OCCCN3CCN(Cc4ccc5ccccc5n4)CC3)c21` [Example 41, 3,3-Dimethyl-4-{3-[4-(2-quinolylmethyl)-1-piperazinyl]propoxy}-2,3-dihydro-1H-indol-2-one], the Ki is 3830 nM on LTD4 receptor and 4.32 nM at H1 receptor. With `CC1(C)C(=O)Nc2cc(OCCCCCN3CCN(Cc4ccc5ccccc5n4)CC3)ccc21` [Example 42, 3,3-Dimethyl-6-{5-[4-(2-quinolylmethyl)-1-piperazinyl]pentyloxy}-2,3-dihydro-1H-indol-2-one], the inhibition at 10 µM in experiment [1] turned out to be 13%. On the same count and under the same terms, the figure for `O=C1CCc2cccc(OCCCCN3CCN(Cc4ccc5ccccc5n4)CC3)c2N1` [Example 44, 8-{4-[4-(2-Quinolylmethyl)-1-piperazinyl]butoxy}-1,2,3,4-tetrahydroquinolin-2-one] is 47%. `O=C1CCc2cccc(OCCCN3CCN(Cc4ccc5ccccc5n4)CC3)c2N1` [Example 45, 8-{3-[4-(2-Quinolylmethyl)-1-piperazinyl]propoxy)-1,2,3,4-tetrahydroquinolin-2-one]: the figures for the Ki on LTD4 receptor and on H1 receptor were 1980 nM and 3.39 nM, respectively. For `CC1(C)C(=O)Nc2ccc(OCCN3CCCN(Cc4ccc5ccccc5n4)CC3)cc21` [Example 50, 3,3-dimethyl-5-{2-[4-(2-quinolylmethyl)-1-homopiperazinyl]ethoxy}-2,3-dihydro-1H-indol-2-one dimaleate] the same measures were 8600 nM and 457 nM. For `Cc1ccc(OCCN2CCCN(Cc3ccc4ccccc4n3)CC2)c2c1NC(=O)C2(C)C` [Example 54, 3,3,7-Trimethyl-4-{2-[4-(2-quinolylmethyl)-1-homopiperazinyl]ethoxy}-2,3-dihydro-1H-indol-2-one] the same measures were 881000 nM and 0.249 nM. Turning to `Cc1ccc(OCCCN2CCCN(Cc3ccc4ccccc4n3)CC2)c2c1NC(=O)CC2` [Example 60, 8-Methyl-5-{3-[4-(2-quinolylmethyl)-1-homopiperazinyl]propoxy}-1,2,3,4-tetrahydroquinolin-2-one], the Ki at LTD4 receptor came to 8730 nM; on H1 receptor, 5.45 nM. Regarding `Cc1ccc(OCCN2CCCN(Cc3ccc4ccccc4n3)CC2)c2c1NC(=O)CC2` [Example 61, 8-Methyl-5-{2-[4-(2-quinolylmethyl)-1-homopiperazinyl]ethoxy}-1,2,3,4-tetrahydroquinolin-2-one], the Ki was found to be 1610 nM on LTD4 receptor and 4.69 nM on H1 receptor. For the same compound, the inhibition at 10 µM in experiment [1] is 19%. Consider `CC1(C)C(=O)Nc2c(OCCCN3CCCN(Cc4ccc5ccccc5n4)CC3)cccc21` [Example 69, 3,3-Dimethyl-7-{3-[4-(2-quinolylmethyl)-1-homopiperazinyl]propoxy}-2,3-dihydro-1H-indol-2-one], for which the inhibition at 10 µM in experiment [1] worked out at 25%. Take `Cn1c(CN2CCCN(CCOc3ccc4c(c3)CCC(=O)N4)CC2)nc2ccccc21` [Example 75, 6-{2-[4-(N-Methylbenzoimidazol-2-ylmethyl)-1-homopiperazinyl]ethoxy}-1,2,3,4-tetrahydroquinolin-2-one]: the Ki is 7340 nM at LTD4 receptor and 55.8 nM at H1 receptor. In the same order, the values of `Cn1c(CN2CCCN(CCOc3ccc4[nH]c(=O)ccc4c3)CC2)nc2ccccc21` [Example 77, 6-{2-[4-(N-Methylbenzoimidazol-2-ylmethyl)-1-homopiperazinyl]ethoxy}-1,2-dihydroquinolin-2-one] are 110000 nM and 74.5 nM. Regarding `CC1(C)C(=O)Nc2cc(OCCCN3CCCN(Cc4ccc5ccccc5n4)CC3)ccc21` [Example 78, 3,3-Dimethyl-6-{3-[4-(2-quinolylmethyl)-1-homopiperazinyl]propoxy}-2,3-dihydro-1H-indol-2-one], the Ki at LTD4 receptor was 7430 nM; at H1 receptor, 18.2 nM. Also, the inhibition at 10 µM in experiment [1] was determined as 27%. `O=C1CCc2ccc(OCCN3CCCN(Cc4ccc5ccccc5n4)CC3)cc2N1` [Example 81, 7-{2-[4-(2-Quinolylmethyl)-1-homopiperazinyl]ethoxy}-1,2,3,4-tetrahydroquinolin-2-one]: the inhibition at 10 µM in experiment [1] was determined as 19%. Regarding `CCOCCn1c(CN2CCCN(CCCOc3ccc4c(c3)SCC(=O)N4)CC2)nc2ccccc21` [Example 83, 7-{3-[4-(N-Ethoxyethylbenzoimidazol-2-ylmethyl)-1-homopiperazinyl]-propoxy}-3,4-dihydro-2H-1,4-benzothiazin-3-one], the inhibition at 10 µM in experiment [1] came to 26%.

For `O=C1CCc2cccc(OCCCN3CCCN(Cc4ccc5ccccc5n4)CC3)c2N1` [Example 88, 8-{3-[4-(2-Quinolylmethyl)-1-homopiperazinyl]propoxy}-1,2,3,4-tetrahydroquinolin-2-one], in experiment [1], the inhibition at 10 µM was 12%.

Regarding `O=C1CCc2cccc(OCCCCN3CCCN(Cc4ccc5ccccc5n4)CC3)c2N1` [Example 89, 8-{4-[4-(2-Quinolylmethyl)-1-homopiperazinyl]butoxy}-1,2,3,4-tetrahydroquinolin-2-one], the inhibition at 10 µM in experiment [1] worked out at 21%. In the case of `Cc1ccc(OCCN2CCN(Cc3ccc4ccccc4n3)CC2)c2c1NC(=O)C2(C)C` [Example 93, 3,3,7-Trimethyl-4-{2-[4-(2-quinolylmethyl)-1-piperazinyl]ethoxy}-2,3-dihydro-1H-indol-2-one], the values for the Ki on LTD4 receptor and at H1 receptor were 5900 nM and 71 nM, respectively. `Cc1ccc(OCCCN2CCCN(Cc3ccc4ccccc4n3)CC2)c2c1NC(=O)C2(C)C` [Example 97, 3,3,7-Trimethyl-4-{3-[4-(2-quinolylmethyl)-1-homopiperazinyl]propoxy}-2,3-dihydro-1H-indol-2-one]: the figures for the Ki on LTD4 receptor and at H1 receptor were 15900 nM and 187 nM, respectively.

`O=C1CSc2cc(OCCCN3CCN(C(=O)c4ccc5ccccc5n4)CC3)ccc2N1` [Example 102, 7-{3-[4-(2-quinolylcarbonyl)piperazinyl]propoxy}-3,4-dihydro-2H-1,4-benzothiazin-3-one maleate]: the inhibition at 10 µM in experiment [1] is 10%.

Source of the values: patent publication US6127360A, “Diamine derivatives and pharmaceutical containing the same” (Kowa Co., Ltd., priority 1997, dated 2000).
